Source: patent US12741974B2, “Compounds constituting C20-modified salinomycin derivatives, a method for obtaining the same, a composition containing the same, a use of said compounds and a method for obtaining an intermediate product” (FILECLO SP. Z O.O., priority 2020, dated 2021)

Columns and labels:
Format in all cases: cell-based
[1] = In vitro cytotoxicity test on normal cells, SRB assay, 72 h incubation with compound; conditions: mouse, balb/3t3 cells, normal murine fibroblasts, read-out: IC50 BALB/3T3
Experimental: Normal murine BALB/3T3 fibroblasts were also used in the tests for determining the selectivity coefficients of the compounds used in the assays.
(§1) In vitro cytotoxicity tests were performed according to the procedure described below. […] The solvent for further dilutions was a culture medium.
(§2) The experiments were repeated at least 3 times.

[2] = system: MV-4-11 (human biphenotypic leukaemia); assay: In vitro cytotoxicity test, MTT assay, 72 h incubation with compound; conditions: for IC50: MV-4-11 human biphenotypic leukaemia, MTT, 72 h; for SI MV-4-11: selectivity coefficient, BALB/3T3 versus MV-4-11
Experimental: as §1, §2
After 4 hours of incubation at 37° C., 80 μL of lysis buffer was added to each well.

[3] = system: LoVo/DX (drug-resistant human colon cancer); assay: In vitro cytotoxicity test, SRB assay, 72 h incubation with compound; conditions: for IC50: LoVo/DX drug-resistant human colon cancer, SRB, 72 h; for RI: drug resistance coefficient, LoVo/DX versus LoVo, 4320 min; for SI LoVo/DX: selectivity coefficient, BALB/3T3 versus LoVo/DX
Experimental: as §1, §2

[4] = system: LoVo (drug-sensitive human colon cancer); assay: as above; conditions: for IC50: LoVo drug-sensitive human colon cancer, SRB, 72 h; for SI LoVo: selectivity coefficient, BALB/3T3 versus LoVo
Experimental: as §1, §2

[5] = system: MCF-7 (human breast cancer); assay: as above; conditions: for IC50: MCF-7 human breast cancer, SRB, 72 h; for SI MCF-7: selectivity coefficient, BALB/3T3 versus MCF-7
Experimental: as §1, §2

B16-F0 (murine melanoma) = assay: as above; conditions: for IC50: B16-F0 murine melanoma, SRB, 72 h; for SI B16-F0: selectivity coefficient, BALB/3T3 versus B16-F0
Experimental: as §1, §2

Hs294T (human melanoma) = assay: as above; conditions: for IC50: Hs294T human melanoma, SRB, 72 h; for SI Hs294T: selectivity coefficient, BALB/3T3 versus Hs294T
Experimental: as §1, §2

Row | Structure (SMILES) | CC50 at 72 h [1] [nM] | IC50 ([2]; MV4-11) [nM] | SI MV-4-11 [2] | IC50 [3] [nM] | RI [3] | SI LoVo/DX [3] | IC50 [4] [nM] | SI LoVo [4] | IC50 ([5]; MCF7) [nM] | SI MCF-7 [5] | IC50 (B16-F0 (murine melanoma); Mus musculus, B16F0) [nM] | SI B16-F0 (B16-F0 (murine melanoma)) | IC50 (Hs294T (human melanoma); Hs 294T) [nM] | SI Hs294T (Hs294T (human melanoma)) | IC50 [2] [nM] | IC50 [5] [nM] | IC50 (B16-F0 (murine melanoma)) [nM] | IC50 (Hs294T (human melanoma)) [nM]
1 | CC[C@@H](C(=O)[C@@H](C)[C@@H](O)[C@H](C)[C@@H]1O[C@@H]([C@@H](CC)C(=O)O)CC[C@@H]1C)[C@H]1O[C@]2(C=C[C@@H](N)[C@]3(CC[C@@](C)([C@H]4CC[C@](O)(CC)[C@H](C)O4)O3)O2)[C@H](C)C[C@@H]1C [(3), C20-aminosalinomycin, reference compound] | 66400 | 5920 | 11.2 | 20500 | 0.6 | 3.2 | 33100 | 2.0 | 34900 | 1.9 | 9440 | 7.0 | 9730 | 6.8 | – | – | – | –
2 | CC[C@@H](C(=O)[C@@H](C)[C@@H](O)[C@H](C)[C@@H]1O[C@@H]([C@@H](CC)C(=O)O)CC[C@@H]1C)[C@H]1O[C@]2(C=C[C@@H](NC(=O)CCl)[C@]3(CC[C@@](C)([C@H]4CC[C@](O)(CC)[C@H](C)O4)O3)O2)[C@H](C)C[C@@H]1C [(11), C20-dehydroxy-C20-aminosalinomycin N-chloroacetamide] | 2590 | 280 | 9.2 | 620 | 0.7 | 4.2 | 930 | 2.8 | 810 | 3.2 | 400 | 6.5 | 60 | 43.2 | – | – | – | –
3 | CC[C@@H](C(=O)[C@@H](C)[C@@H](O)[C@H](C)[C@@H]1O[C@@H]([C@@H](CC)C(=O)O)CC[C@@H]1C)[C@H]1O[C@]2(C=C[C@@H](NC(=O)CCCCl)[C@]3(CC[C@@](C)([C@H]4CC[C@](O)(CC)[C@H](C)O4)O3)O2)[C@H](C)C[C@@H]1C [(12), C20-dehydroxy-C20-aminosalinomycin N-4-chlorobutyramide] | 17100 | 200 | 85.4 | 1550 | 2.5 | 11.0 | 630 | 27.1 | 900 | 19.0 | 560 | 30.5 | 70 | 243.9 | – | – | – | –
4 | CC[C@@H](C(=O)[C@@H](C)[C@@H](O)[C@H](C)[C@@H]1O[C@@H]([C@@H](CC)C(=O)O)CC[C@@H]1C)[C@H]1O[C@]2(C=C[C@@H](NC(=O)COC)[C@]3(CC[C@@](C)([C@H]4CC[C@](O)(CC)[C@H](C)O4)O3)O2)[C@H](C)C[C@@H]1C [(13), C20-dehydroxy-C20-aminosalinomycin N-methoxyacetamide] | 14000 | 270 | 51.9 | 2330 | 3.5 | 6.0 | 670 | 20.9 | 1310 | 10.7 | 530 | 26.4 | 60 | 233.5 | – | – | – | –
5 | CC[C@@H](C(=O)[C@@H](C)[C@@H](O)[C@H](C)[C@@H]1O[C@@H]([C@@H](CC)C(=O)O)CC[C@@H]1C)[C@H]1O[C@]2(C=C[C@@H](NC(=O)c3ccc(CCl)cc3)[C@]3(CC[C@@](C)([C@H]4CC[C@](O)(CC)[C@H](C)O4)O3)O2)[C@H](C)C[C@@H]1C [(16), C20-dehydroxy-C20-aminosalinomycin N-(4-chloromethyl)benzamide] | 2500 | 30 | 83.3 | 630 | 2.2 | 4.0 | 290 | 8.6 | 580 | 4.3 | 480 | 5.2 | 30 | 83.3 | – | – | – | –
6 | CC[C@@H](C(=O)[C@@H](C)[C@@H](O)[C@H](C)[C@@H]1O[C@@H]([C@@H](CC)C(=O)O)CC[C@@H]1C)[C@H]1O[C@]2(C=C[C@@H](NC(=O)OC)[C@]3(CC[C@@](C)([C@H]4CC[C@](O)(CC)[C@H](C)O4)O3)O2)[C@H](C)C[C@@H]1C [(18), C20-dehydroxy-C20-aminosalinomycin N-methylcarbamate] | 1760 | 70 | 25.1 | 160 | 0.3 | 11.0 | 480 | 3.7 | 570 | 3.1 | 50 | 35.2 | 20 | 88.0 | – | – | – | –
7 | CCOC(=O)N[C@@H]1C=C[C@]2(O[C@H]([C@@H](CC)C(=O)[C@@H](C)[C@@H](O)[C@H](C)[C@@H]3O[C@@H]([C@@H](CC)C(=O)O)CC[C@@H]3C)[C@@H](C)C[C@H]2C)O[C@@]12CC[C@@](C)([C@H]1CC[C@](O)(CC)[C@H](C)O1)O2 [(19), C20-dehydroxy-C20-aminosalinomycin N-ethylcarbamate] | 970 | 40 | 24.3 | 43100 | 269.4 | 0.02 | 160 | 6.1 | 540 | 1.8 | 30 | 32.3 | 10 | 97.0 | – | – | – | –
8 | CC[C@@H](C(=O)[C@@H](C)[C@@H](O)[C@H](C)[C@@H]1O[C@@H]([C@@H](CC)C(=O)O)CC[C@@H]1C)[C@H]1O[C@]2(C=C[C@@H](NC(=O)OCC(C)(C)C)[C@]3(CC[C@@](C)([C@H]4CC[C@](O)(CC)[C@H](C)O4)O3)O2)[C@H](C)C[C@@H]1C [(20), C20-dehydroxy-C20-aminosalinomycin N-neopentylcarbamate] | 3240 | 360 | 9.0 | 640 | 0.8 | 5.1 | 820 | 4.0 | 2380 | 1.4 | 640 | 5.1 | 280 | 11.6 | – | – | – | –
9 | CCCNC(=O)N[C@@H]1C=C[C@]2(O[C@H]([C@@H](CC)C(=O)[C@@H](C)[C@@H](O)[C@H](C)[C@@H]3O[C@@H]([C@@H](CC)C(=O)[O-])CC[C@@H]3C)[C@@H](C)C[C@H]2C)O[C@@]12CC[C@@](C)([C@H]1CC[C@](O)(CC)[C@H](C)O1)O2.[Na+] [(23), propylurea of C20-dehydroxy-C20-aminosalinomycin] | 1540 | 1.1 | 1400.0 | 150 | 2.5 | 10.3 | 60 | 25.7 | 370 | 4.2 | 70 | 22.0 | 10 | 154.0 | – | – | – | –
10 | CCCCNC(=O)N[C@@H]1C=C[C@]2(O[C@H]([C@@H](CC)C(=O)[C@@H](C)[C@@H](O)[C@H](C)[C@@H]3O[C@@H]([C@@H](CC)C(=O)[O-])CC[C@@H]3C)[C@@H](C)C[C@H]2C)O[C@@]12CC[C@@](C)([C@H]1CC[C@](O)(CC)[C@H](C)O1)O2.[Na+] [(24), butylurea of C20-dehydroxy-C20-aminosalinomycin] | 800 | 1 | 800.0 | 110 | 1.6 | 7.3 | 70 | 11.4 | 400 | 2.0 | 50 | 16.0 | 40 | 20.0 | – | – | – | –
11 | N.N.[Cl][Pt][Cl] [cisplatin, reference compound] | – | – | – | 8000 | 1.1 | – | 6970 | – | – | – | – | – | – | – | 3400 | 7170 | 3840 | 4010
